In patent publication US20190209501A1, “COMPOSITIONS AND METHODS OF USE OF BETA-HYDROXY-BETA-METHYLBUTYRATE (HMB) […] IN[…]” (Texas Tech University Office of Research Commercialization, priority 2018, published 2019):

What was measured:
[1] = Muscle thickness of elbow flexors and knee extensors via ultrasonography; assay type: in vivo, human; conditions: for MTEF ES (d) / MTKE ES (d): Cohen's d baseline vs week 8; for MTEF Δ (%) / MTKE Δ (%): change baseline to week 8 relative to baseline; for MTEF (cm) Week 8: muscle thickness elbow flexors; for MTEF (cm) Week 8 / MTKE (cm) Week 8: mean ± SE; for MTKE (cm) Week 8: muscle thickness knee extensors; for MTEF (cm) Δ / MTKE (cm) Δ: week 8 minus baseline
Description: In addition to whole-body composition estimates, muscle thickness of the elbow flexors (MTEF) and knee extensors (MTKE) was evaluated via ultrasonography (Logiq e, General Electric. Boston, Mass. USA) at baseline and study completion. […] These distances were measured while the participant was standing, and measurement distances at baseline were recorded and used at the final assessment. All assessments took place on the right side of the body. In the supine position, the participant's arm was abducted to ˜80° with the arm supported for elbow flexor measurements. For knee extensor measurements, a foam pad was placed beneath the knee to allow an ˜10° bend at the knee joint. For all assessments, transmission gel was generously applied to the marked measurement location, and minimal pressure was applied by the transducer in order to avoid tissue compression. Three single transverse images were taken at each location, with values averaged for analysis. The gain and depth of the transducer were kept consistent for all measurements at a given site. Ultrasound images were blinded for analysis and analyzed by a single blinded researcher using ImageJ (v. 1.52a; National Institutes of Health, USA). The reliability of the researcher analyzing ultrasound images was determined through blinded analysis of 28 randomly selected ultrasound images on two occasions. This exercise produced minimum differences (MD) of 0.07 cm for MTEF and 0.14 cm for MTKE.

[2] = Blood markers (lipids, glucose, insulin); assay type: in vivo, human; conditions: for Cholesterol Δ / Cholesterol Δ (%) / Glucose Δ / Glucose Δ (%) / HDL Δ / HDL Δ (%) / Insulin Δ / Insulin Δ (%) / LDL Δ / LDL Δ (%) / Triglycerides Δ / Triglycerides Δ (%) / VLDL Δ / VLDL Δ (%): baseline to W 8; for Cholesterol ES (d) / Glucose ES (d) / HDL ES (d) / Insulin ES (d) / LDL ES (d) / Triglycerides ES (d) / VLDL ES (d): effect size
Text: At baseline and after 4 and 8 weeks of the intervention, participants completed two testing sessions: (1) a morning assessment conducted after an overnight fast for assessment of body composition, metabolism, vascular measures and subjective factors: and (2) an afternoon assessment of muscular performance, conducted in the non-fasted state. For morning assessments, participants reported to the laboratory after abstention from eating, drinking, exercising and utilizing caffeine or nicotine for ≥8 hours. Participants were interviewed to confirm adherence to these pre-assessment restrictions. The actual abstention from exercise was ≥14 hours due to the scheduling of exercise sessions. Participants reported to the laboratory wearing athletic clothing, and all metal and accessories were removed from the body prior to testing. Each participant voided her bladder and provided a urine sample. Urine samples were assessed for urine specific gravity (USG) using a digital refractometer (PA201X-093. Misco, Solon, Ohio. USA). Additionally, a standard urinary HCG test was performed to confirm that each participant was not pregnant. Finally, urinary samples were frozen at −80° C. for assessment of urinary HMB content after study unblinding. After voiding, each participant's body mass (BM) and height were determined via digital scale with stadiometer (Seca 769, Hamburg, Germany). Blood draws were performed at Texas Tech University Student Health Services after an overnight fast, and participants completed at-home saliva collections for assessment of the cortisol awakening response (CAR).
Blood samples collected by certified health professionals were transported via courier to a local clinical laboratory for analysis (University Medical Center Health System, Lubbock, Tex., USA). Testing was performed using standard instrumentation (Cobas 6000, Roche Diagnostics, Risch-Rotkreuz. Switzerland). Total cholesterol, triglycerides and HDL cholesterol were assessed using enzymatic colorimetric assays, and VLDL and non-HDL cholesterol were calculated. LDL cholesterol was calculated using the Martin-Hopkins equation (35). Glucose was measured using an enzymatic UV test, and insulin was assessed via electrochemiluminescence immunoassay. Results of the clinical laboratory analyses were provided to study investigators.

## CC(C)(O)CC(=O)O [TRFHMB, β-hydroxy-β-methylbutyrate]
[1]; ITT analysis
  MTEF ES (d): 0.68
  MTKE ES (d): 0.33
  MTEF Δ (%): 8%
  MTKE Δ (%): 5%
  MTEF (cm) Week 8: 2.96 ± 0.09 cm
  MTKE (cm) Week 8: 4.33 ± 0.16 cm
  MTEF (cm) Δ: 0.22 cm
  MTKE (cm) Δ: 0.19 cm
[1]; PP analysis
  MTEF ES (d): 0.86
  MTKE ES (d): 0.31
  MTEF Δ (%): 9%
  MTKE Δ (%): 4%
  MTEF (cm) Week 8: 2.97 ± 0.10 cm
  MTKE (cm) Week 8: 4.44 ± 0.20 cm
  MTEF (cm) Δ: 0.24 cm
  MTKE (cm) Δ: 0.17 cm
[2]; ITT, Baseline
  Cholesterol: 178 ± 9 mg/dL
  Glucose: 90 ± 3 mg/dL
  HDL: 75 ± 4 mg/dL
  Insulin: 10 ± 2 mcU/mL
  LDL: 85 ± 7 mg/dL
  Triglycerides: 95 ± 10 mg/dL
  VLDL: 19 ± 2 mg/dL
[2]; ITT, W 8
  Cholesterol: 183 ± 11 mg/dL
  Glucose: 89 ± 3 mg/dL
  HDL: 68 ± 5 mg/dL
  Insulin: 13 ± 3 mcU/mL
  LDL: 97 ± 7 mg/dL
  Triglycerides: 85 ± 12 mg/dL
  VLDL: 17 ± 2 mg/dL
[2]; ITT
  Cholesterol Δ: 5 mg/dL
  Cholesterol Δ (%): 3%
  Glucose Δ: -1 mg/dL
  Glucose Δ (%): −1%
  HDL Δ: -7 mg/dL
  HDL Δ (%): −9%
  Insulin Δ: 3 mcU/mL
  Insulin Δ (%): 30%
  LDL Δ: 12 mg/dL
  LDL Δ (%): 14%
  Triglycerides Δ: -10 mg/dL
  Triglycerides Δ (%): −11%
  VLDL Δ: -2 mg/dL
  VLDL Δ (%): −11%
  Cholesterol ES (d): 0.14
  Glucose ES (d): −0.09
  HDL ES (d): −0.43
  Insulin ES (d): 0.27
  LDL ES (d): 0.48
  Triglycerides ES (d): −0.25
  VLDL ES (d): −0.28
[2]; PP, Baseline
  Cholesterol: 168 ± 13 mg/dL
  Glucose: 92 ± 4 mg/dL
  HDL: 72 ± 5 mg/dL
  Insulin: 9 ± 3 mcU/mL
  LDL: 78 ± 9 mg/dL
  Triglycerides: 91 ± 14 mg/dL
  VLDL: 18 ± 3 mg/dL
[2]; PP, W 8
  Cholesterol: 183 ± 15 mg/dL
  Glucose: 90 ± 4 mg/dL
  HDL: 70 ± 6 mg/dL
  Insulin: 10 ± 3 mcU/mL
  LDL: 96 ± 9 mg/dL
  Triglycerides: 80 ± 17 mg/dL
  VLDL: 16 ± 3 mg/dL
[2]; PP
  Cholesterol Δ: 15 mg/dL
  Cholesterol Δ (%): 9%
  Glucose Δ: -2 mg/dL
  Glucose Δ (%): −2%
  HDL Δ: -2 mg/dL
  HDL Δ (%): −3%
  Insulin Δ: 1 mcU/mL
  Insulin Δ (%): 11%
  LDL Δ: 18 mg/dL
  LDL Δ (%): 23%
  Triglycerides Δ: -11 mg/dL
  Triglycerides Δ (%): −12%
  VLDL Δ: -2 mg/dL
  VLDL Δ (%): −11%
  Cholesterol ES (d): 0.40
  Glucose ES (d): −0.19
  HDL ES (d): −0.14
  Insulin ES (d): 0.55
  LDL ES (d): 0.76
  Triglycerides ES (d): −0.27
  VLDL ES (d): −0.30
